Laboratory results reported in US8647651B2, “Synergistic mixtures of C6- to C12-alkanediols and tropolone (derivatives)” (priority 2005, dated 2014).

Test system: Aspergillus niger ATCC 16404
Assay: Testing for adequate preservation (European Pharmacopoeia) of O/W emulsion, Example 1
Assay type: cell-based
Settings: for Aspergillus niger germ count: O/W emulsion pH 5.5, 0.5% product A, 0.01% product B, 0.31% product C
Description: Testing for adequate preservation was carried out in accordance with the European Pharmacopoeia. Testing thus comprises contamination of the formulation, if possible in its final condition, with a prescribed inoculum of suitable microorganisms, storage of the inoculated formulation at a certain temperature, removal of samples from the container at certain intervals of time and determination of the number of microorganisms in the samples removed in this way. The preserving properties are adequate if, under the conditions of the test, a clear reduction or, where appropriate, no increase in the germ count results in the inoculated formulations after the prescribed times at the prescribed temperatures. Experimental details of the test procedure are described in the European Pharmacopoeia (ISBN 3-7692-2768-9; Supplement 2001 to the 3rd Edition, page 421-422, chapter 5.1.3). The following microorganism strains were used for the tests for adequate preservation: • A: Escherichia coli ATCC 8739 • B: Pseudomonas aeruginosa ATCC 9027 • C: Staphylococcus aureus ATCC 6538 • D: Candida albicans ATCC 10231 • E: Aspergillus niger ATCC 16404 The initial germ count (CFU/g; “0 value”) was in the range of from 250,000 to 320,000 in the various test series. Formulation: For the tests for adequate preservation, a defined amount of the active compound combination according to the invention (product C) was incorporated into an O/W emulsion. For comparison purposes, the comparison products (product A and B) were incorporated into separate O/W emulsions. [table] The results of the preservative stress tests for Aspergillus niger for the active compound combinations investigated, comprising the mixture according to the invention (product C) or the comparison systems (products A and B) are compared in Table 2. The synergistic effect of the mixture according to the invention (product C) manifests itself here above all in the residual germ counts for Aspergillus niger which remain after 28 days.

## O=c1cccccc1O [product B, 2,4,6-cycloheptatrien-1-one, 2-hydroxy]
28 days, product A 0.5 wt. %
  reduction in the number of colony-forming units (CFU) of Aspergillus niger: no such significant reduction
Day 0 (initial germ count)
  Aspergillus niger germ count: 280,000 CFU/ml
Day 2
  Aspergillus niger germ count: 72,000 CFU/ml
Day 7
  Aspergillus niger germ count: 2,000 CFU/ml
Day 14
  Aspergillus niger germ count: 4,800 CFU/ml
Day 28
  Aspergillus niger germ count: 100 CFU/ml
